Reference: BindingDB's records for doi:10.1021/bi9005896 (Albert Einstein College of Medicine, 2009)

Target: T1, Purine nucleoside phosphorylase (Homo sapiens, UniProt P00491)
T1 sequence (P00491 whole entry): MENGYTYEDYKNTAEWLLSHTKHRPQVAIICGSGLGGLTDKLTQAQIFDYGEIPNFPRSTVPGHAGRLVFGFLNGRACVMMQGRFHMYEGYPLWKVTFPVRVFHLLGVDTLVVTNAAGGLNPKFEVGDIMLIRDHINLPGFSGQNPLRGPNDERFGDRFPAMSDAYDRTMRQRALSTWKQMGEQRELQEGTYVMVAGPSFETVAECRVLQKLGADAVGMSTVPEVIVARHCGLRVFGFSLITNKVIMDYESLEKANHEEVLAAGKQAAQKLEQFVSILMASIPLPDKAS
Test: Inhibtion Assay
Text: Inhibition assay using human PNP.

O=c1[nH]cnc2c(CN3CCC(O)C3)c[nH]c12 (stereo unspecified) [Immucillins, 11]
Kd: 0.383 nM
